Where two headings read alike, the source gives them in different places.
Key:
Assay in all cases: KinomeScan kinase panel, single concentration 10 µM
Assay type in all cases: binding
KinomeScan kinase panel [1] = target: T1, KinomeScan kinase panel (Homo sapiens, UniProt Q96D53); conditions: ADCK4, 10 µM; read-out: score (%)
T1 construct: purchased DiscoveRx (KinomeScan)
T1 sequence (Q96D53 1-544): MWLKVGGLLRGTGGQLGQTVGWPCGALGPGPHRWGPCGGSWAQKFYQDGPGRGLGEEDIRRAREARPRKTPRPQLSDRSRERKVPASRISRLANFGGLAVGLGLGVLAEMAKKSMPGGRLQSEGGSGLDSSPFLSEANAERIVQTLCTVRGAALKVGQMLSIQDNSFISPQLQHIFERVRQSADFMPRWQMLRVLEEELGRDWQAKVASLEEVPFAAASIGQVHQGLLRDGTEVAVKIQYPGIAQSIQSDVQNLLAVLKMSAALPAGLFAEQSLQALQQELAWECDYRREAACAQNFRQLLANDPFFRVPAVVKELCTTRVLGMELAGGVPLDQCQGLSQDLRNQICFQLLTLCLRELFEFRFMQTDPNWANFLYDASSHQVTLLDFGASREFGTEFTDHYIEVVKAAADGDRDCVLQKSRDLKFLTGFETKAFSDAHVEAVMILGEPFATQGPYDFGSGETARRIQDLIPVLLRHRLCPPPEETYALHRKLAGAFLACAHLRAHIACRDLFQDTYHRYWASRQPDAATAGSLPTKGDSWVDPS

KinomeScan kinase panel [2] = target: T2, KinomeScan kinase panel (Homo sapiens, UniProt Q04771); conditions: ACVR1, 10 µM; read-out: score (%)
T2 construct: purchased DiscoveRx (KinomeScan)
T2 sequence (Q04771 21-509): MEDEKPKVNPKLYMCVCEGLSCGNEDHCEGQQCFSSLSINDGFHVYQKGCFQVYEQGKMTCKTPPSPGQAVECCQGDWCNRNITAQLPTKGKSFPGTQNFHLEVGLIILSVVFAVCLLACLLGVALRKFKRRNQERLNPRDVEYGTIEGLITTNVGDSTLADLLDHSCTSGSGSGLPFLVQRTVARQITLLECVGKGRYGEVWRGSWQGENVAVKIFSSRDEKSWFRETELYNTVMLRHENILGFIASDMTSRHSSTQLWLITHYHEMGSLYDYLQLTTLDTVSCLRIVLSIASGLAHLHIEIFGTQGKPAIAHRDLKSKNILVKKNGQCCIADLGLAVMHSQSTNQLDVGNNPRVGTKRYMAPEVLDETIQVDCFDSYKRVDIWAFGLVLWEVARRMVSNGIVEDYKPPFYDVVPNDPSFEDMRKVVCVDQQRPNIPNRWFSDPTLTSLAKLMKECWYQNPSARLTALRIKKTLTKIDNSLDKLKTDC

KinomeScan kinase panel [3] = target: T3, KinomeScan kinase panel (Homo sapiens, UniProt P31749); conditions: AKT1, 10 µM; read-out: score (%)
T3 construct: purchased DiscoveRx (KinomeScan)

KinomeScan kinase panel [4] = target: T4, KinomeScan kinase panel (Homo sapiens, UniProt O94921); conditions: PFTK1, 10 µM
T4 construct: purchased DiscoveRx (KinomeScan)

KinomeScan kinase panel [5] = target: T5, KinomeScan kinase panel (Homo sapiens, UniProt P48736); conditions: PIK3CG, 10 µM; read-out: score (%)
T5 construct: purchased DiscoveRx (KinomeScan)

KinomeScan kinase panel [6] = target: T6, KinomeScan kinase panel (Homo sapiens, UniProt Q59H18); conditions: 10 µM, read-out: score (%)
T6 construct: purchased DiscoveRx (KinomeScan)
T6 sequence (Q59H18 1-835): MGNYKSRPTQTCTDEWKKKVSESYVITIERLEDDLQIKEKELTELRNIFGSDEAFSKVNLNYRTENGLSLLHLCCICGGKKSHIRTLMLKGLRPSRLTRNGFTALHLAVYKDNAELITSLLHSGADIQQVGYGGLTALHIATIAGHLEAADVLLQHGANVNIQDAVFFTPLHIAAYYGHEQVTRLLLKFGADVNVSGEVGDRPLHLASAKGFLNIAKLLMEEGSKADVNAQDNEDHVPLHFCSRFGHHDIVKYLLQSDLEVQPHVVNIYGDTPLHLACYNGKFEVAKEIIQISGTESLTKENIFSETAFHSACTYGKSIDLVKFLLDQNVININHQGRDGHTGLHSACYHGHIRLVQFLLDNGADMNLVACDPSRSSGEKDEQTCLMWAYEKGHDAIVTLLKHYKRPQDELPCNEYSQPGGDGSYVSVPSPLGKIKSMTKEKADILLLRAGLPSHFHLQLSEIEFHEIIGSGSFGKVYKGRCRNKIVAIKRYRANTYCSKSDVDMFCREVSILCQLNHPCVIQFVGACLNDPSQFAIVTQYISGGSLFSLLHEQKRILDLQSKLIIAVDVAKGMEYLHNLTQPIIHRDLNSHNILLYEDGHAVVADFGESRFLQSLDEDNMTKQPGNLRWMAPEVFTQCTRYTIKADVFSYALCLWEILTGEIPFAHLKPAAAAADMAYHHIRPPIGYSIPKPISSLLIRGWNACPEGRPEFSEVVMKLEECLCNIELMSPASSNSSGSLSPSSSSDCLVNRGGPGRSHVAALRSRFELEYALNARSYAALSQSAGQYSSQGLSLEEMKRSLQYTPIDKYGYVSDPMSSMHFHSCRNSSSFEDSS

KinomeScan kinase panel [7] = target: T7, KinomeScan kinase panel (Homo sapiens, UniProt P42680); conditions: 10 µM, read-out: score (%)
T7 construct: purchased DiscoveRx (KinomeScan)
T7 sequence (P42680 1-631): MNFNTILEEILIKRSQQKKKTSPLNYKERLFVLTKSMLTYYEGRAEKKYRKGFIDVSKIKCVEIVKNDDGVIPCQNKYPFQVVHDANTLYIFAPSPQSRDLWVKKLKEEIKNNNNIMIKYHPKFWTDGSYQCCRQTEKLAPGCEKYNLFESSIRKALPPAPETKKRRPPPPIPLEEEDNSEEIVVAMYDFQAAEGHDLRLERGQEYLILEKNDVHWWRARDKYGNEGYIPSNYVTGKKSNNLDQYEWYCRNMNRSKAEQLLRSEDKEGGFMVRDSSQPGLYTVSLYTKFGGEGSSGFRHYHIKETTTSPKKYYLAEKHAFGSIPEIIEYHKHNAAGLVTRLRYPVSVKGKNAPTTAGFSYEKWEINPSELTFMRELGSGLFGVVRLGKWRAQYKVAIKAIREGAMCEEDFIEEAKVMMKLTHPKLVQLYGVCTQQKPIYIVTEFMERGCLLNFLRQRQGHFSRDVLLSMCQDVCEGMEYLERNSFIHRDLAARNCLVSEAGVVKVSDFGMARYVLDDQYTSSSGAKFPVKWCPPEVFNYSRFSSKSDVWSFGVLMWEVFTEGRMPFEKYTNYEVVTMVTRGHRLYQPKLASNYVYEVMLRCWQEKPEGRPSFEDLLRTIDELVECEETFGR

KinomeScan kinase panel [8] = target: T8, KinomeScan kinase panel (Homo sapiens, UniProt P10721, V559D/V654A); conditions: KIT(V559D.V654A), 10 µM; read-out: score (%)
T8 construct: purchased DiscoveRx (KinomeScan)
T8 sequence (P10721 26-976 V559D/V654A): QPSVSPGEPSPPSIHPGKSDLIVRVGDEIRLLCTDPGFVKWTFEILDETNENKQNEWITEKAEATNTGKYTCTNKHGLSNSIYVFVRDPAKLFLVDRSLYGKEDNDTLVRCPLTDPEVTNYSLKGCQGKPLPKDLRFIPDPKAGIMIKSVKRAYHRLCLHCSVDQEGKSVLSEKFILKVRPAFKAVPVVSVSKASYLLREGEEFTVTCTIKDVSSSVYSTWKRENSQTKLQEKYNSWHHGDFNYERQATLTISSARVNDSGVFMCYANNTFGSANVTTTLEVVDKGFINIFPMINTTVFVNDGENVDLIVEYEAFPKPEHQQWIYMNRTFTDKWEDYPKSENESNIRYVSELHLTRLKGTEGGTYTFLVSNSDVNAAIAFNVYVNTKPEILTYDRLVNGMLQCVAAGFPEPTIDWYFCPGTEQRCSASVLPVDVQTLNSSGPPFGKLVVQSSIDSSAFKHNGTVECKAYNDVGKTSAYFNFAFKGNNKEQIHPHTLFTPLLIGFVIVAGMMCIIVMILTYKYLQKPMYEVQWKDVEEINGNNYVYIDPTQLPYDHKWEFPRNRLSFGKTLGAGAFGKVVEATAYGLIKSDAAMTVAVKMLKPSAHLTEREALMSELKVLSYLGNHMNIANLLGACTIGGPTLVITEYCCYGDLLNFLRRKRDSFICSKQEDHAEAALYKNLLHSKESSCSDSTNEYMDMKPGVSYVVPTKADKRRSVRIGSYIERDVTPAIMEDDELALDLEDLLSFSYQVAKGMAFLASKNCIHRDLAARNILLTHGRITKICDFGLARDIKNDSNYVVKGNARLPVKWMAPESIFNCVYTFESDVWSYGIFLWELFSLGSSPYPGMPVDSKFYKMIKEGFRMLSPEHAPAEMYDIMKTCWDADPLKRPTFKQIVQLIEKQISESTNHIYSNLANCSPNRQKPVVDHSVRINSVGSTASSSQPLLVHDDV

T5 sequence (P48736 whole entry): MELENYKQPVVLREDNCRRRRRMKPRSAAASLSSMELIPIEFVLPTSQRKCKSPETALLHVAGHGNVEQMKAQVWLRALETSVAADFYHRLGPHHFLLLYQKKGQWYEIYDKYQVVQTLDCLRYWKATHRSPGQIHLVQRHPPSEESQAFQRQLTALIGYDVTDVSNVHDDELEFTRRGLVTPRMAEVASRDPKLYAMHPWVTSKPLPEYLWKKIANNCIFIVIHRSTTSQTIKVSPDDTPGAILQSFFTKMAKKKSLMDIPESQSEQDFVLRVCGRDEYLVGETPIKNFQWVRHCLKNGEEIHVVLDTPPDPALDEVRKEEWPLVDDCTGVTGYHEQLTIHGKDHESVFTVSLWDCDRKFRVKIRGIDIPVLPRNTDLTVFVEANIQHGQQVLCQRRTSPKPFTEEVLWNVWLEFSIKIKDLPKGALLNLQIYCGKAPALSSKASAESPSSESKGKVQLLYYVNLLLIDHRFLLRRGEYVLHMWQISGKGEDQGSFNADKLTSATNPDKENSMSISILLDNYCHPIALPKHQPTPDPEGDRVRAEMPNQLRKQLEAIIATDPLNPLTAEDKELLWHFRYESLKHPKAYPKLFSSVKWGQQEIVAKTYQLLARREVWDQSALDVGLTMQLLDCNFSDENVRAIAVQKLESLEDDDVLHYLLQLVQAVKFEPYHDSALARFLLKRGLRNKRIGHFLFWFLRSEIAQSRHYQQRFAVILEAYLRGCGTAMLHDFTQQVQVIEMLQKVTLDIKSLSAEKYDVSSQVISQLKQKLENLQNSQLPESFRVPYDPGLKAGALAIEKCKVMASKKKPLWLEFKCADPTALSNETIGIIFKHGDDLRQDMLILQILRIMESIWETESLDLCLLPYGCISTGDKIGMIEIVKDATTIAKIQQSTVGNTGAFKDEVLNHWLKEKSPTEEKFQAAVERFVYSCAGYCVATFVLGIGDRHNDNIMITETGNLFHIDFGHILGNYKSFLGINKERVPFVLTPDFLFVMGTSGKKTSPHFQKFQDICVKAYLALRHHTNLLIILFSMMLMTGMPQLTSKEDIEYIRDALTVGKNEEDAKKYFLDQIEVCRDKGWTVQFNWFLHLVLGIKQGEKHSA
T3 sequence (P31749 whole entry): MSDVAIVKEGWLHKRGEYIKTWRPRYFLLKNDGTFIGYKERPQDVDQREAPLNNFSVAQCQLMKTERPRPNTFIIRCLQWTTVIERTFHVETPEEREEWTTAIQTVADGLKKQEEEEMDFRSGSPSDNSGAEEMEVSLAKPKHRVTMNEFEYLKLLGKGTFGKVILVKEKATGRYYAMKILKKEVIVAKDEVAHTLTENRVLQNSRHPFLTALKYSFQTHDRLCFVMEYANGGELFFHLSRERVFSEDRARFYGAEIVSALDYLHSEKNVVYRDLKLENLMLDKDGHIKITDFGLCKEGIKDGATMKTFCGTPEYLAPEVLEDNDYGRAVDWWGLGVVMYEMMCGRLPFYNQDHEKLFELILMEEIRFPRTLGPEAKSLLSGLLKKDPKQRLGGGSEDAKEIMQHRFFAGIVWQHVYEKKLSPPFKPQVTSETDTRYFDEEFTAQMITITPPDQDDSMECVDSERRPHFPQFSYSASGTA
T4 sequence (O94921 whole entry): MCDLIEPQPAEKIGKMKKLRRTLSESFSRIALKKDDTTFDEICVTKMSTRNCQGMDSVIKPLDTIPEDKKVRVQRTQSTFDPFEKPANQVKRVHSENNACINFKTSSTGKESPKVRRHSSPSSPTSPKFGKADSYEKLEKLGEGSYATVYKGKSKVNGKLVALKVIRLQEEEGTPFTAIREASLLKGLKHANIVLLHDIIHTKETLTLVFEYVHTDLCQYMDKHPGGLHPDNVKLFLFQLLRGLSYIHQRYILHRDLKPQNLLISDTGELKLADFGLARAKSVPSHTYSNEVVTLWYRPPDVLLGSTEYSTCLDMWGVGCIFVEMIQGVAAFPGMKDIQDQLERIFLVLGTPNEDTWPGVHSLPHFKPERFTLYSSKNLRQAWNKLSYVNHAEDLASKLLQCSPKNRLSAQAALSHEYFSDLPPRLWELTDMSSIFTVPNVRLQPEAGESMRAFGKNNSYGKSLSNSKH

Structure (SMILES)	remaining binding at 10 µM (KinomeScan kinase panel [1]) [%]	remaining binding at 10 µM (KinomeScan kinase panel [2]) [%]	remaining binding at 10 µM (KinomeScan kinase panel [3]) [%]	score (%) (KinomeScan kinase panel [4])	remaining binding at 10 µM (KinomeScan kinase panel [5]) [%]	remaining binding at 10 µM (KinomeScan kinase panel [6]; kinase TNNI3K) [%]	remaining binding at 10 µM (KinomeScan kinase panel [7]; kinase TEC) [%]	remaining binding at 10 µM (KinomeScan kinase panel [8]) [%]	remaining binding at 10 µM (KinomeScan kinase panel [6]; TNNI3K) [%]	remaining binding at 10 µM (KinomeScan kinase panel [7]; TEC) [%]
CCN1CCN(Cc2ccc(NC(=O)c3ccc(C)c(NC(=O)c4cncc(-c5cccs5)c4)c3)cc2C(F)(F)F)CC1 [ALW-II-41-27]	> 30	> 30	4.4	nb (Hits values higher than 30% were considered negative (no binding: nb))	> 30	3.8	1.7	5.4	–	–
CCN1CCN(Cc2ccc(NC(=O)c3ccc(C)c(/C=C/c4cnc5[nH]ccc5c4Cl)c3)cc2C(F)(F)F)CC1 [HG-6-63-01, (E)-3-(2-(4-chloro-1H-pyrrolo[2,3-b]pyridin-5-yl)vinyl)-N-(4-((4-ethylpiperazin-1-yl)methyl)-3-(trifluoromethyl)phenyl)-4-methylbenzamide]	> 30	> 30	> 30	nb (Hits values higher than 30% were considered negative (no binding: nb))	> 30	–	–	0.9	0.9	1.2
CCN1CCN(Cc2ccc(NC(=O)c3ccc(C)c(C#Cc4cccnc4)c3)cc2C(F)(F)F)CC1 [XMD15-44]	> 30	> 30	> 30	0.85%	100	0	3.7	4.2	–	–

Source: article PMC4457528, “Identification of Novel Small Molecule Inhibitors of Oncogenic RET Kinase” (PLoS ONE, 2015)
